Data on 24 compounds can be found in patent US20230081426A1, “COMPOUNDS AND METHODS FOR KRAS MODULATION AND INDICATIONS THEREFOR” (Plexxikon Inc., priority 2020, published 2023).

The target in assay [1] is T1, G12D-mutant human KRAS (amino acid residues 1-188) (Homo sapiens, UniProt P01116, G12D).
T1 construct: G12D or G12C-mutant human KRAS (amino acid residues 1-188) with FLAG tag; made in house; host or cells: E. coli
The assay can be described thus: KRAS Binding Disruption Assay (AlphaScreen; biotinylated KRpep-2d analogue or RAF1-RBD), G12D. Particulars: KRAS G12D; geometric mean; read-out: KRAS GMean IC50 (uM) MUTATION: G12D. The method, boiled down: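 Mutant KRAS (5-20 nM) incubated 1 h at 25° C with test compound and 5-20 nM biotinylated KRpep-2d analogue or RAF1-RBD in 20 mM HEPES pH 7.5, 100 mM NaCl, 5 mM MgCl2, 0.01% Tween-20, 0.01% BSA.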
A general note: In Alpha technology, singlet oxygen from a donor bead excites a nearby acceptor bead.

The target of assay [2] is T2, G12V-mutant human KRAS (amino acid residues 1-188) (Homo sapiens, UniProt P01116, G12V).
T2 construct: G12V-mutant human KRAS (amino acid residues 1-188) with FLAG tag was purified from E. coli; made in house; host or cells: E. coli
The assay can be described thus: KRAS Binding Competition Assay (AlphaScreen; biotinylated KRpep-2d analogue), G12V. Particulars: geometric mean, read-out: KRAS GMean IC50 (uM) MUTATION: G12V.

Broadly, the IC50 is the concentration that gives 50% inhibition. In the case of `Cc1ccc(N)cc1-c1ccc2c(N3C[C@H]4CC[C@@H](C3)N4)nc(OC[C@@H]3CCCN3C)nc2c1` [P-0152, 3-(4-((1R,5S)-3,8-diazabicyclo[3.2.1]octan-3-yl)-2-(((S)-1-methylpyrrolidin-2-yl)methoxy)quinazolin-7-yl)-4-methylaniline], the IC50 in assay [1] and in assay [2] was 10 to 100 µM throughout.

Take `CN1CCC[C@H]1COc1nc(N2C[C@H]3CC[C@@H](C2)N3)c2ccc(-c3cc4ccccc4s3)cc2n1` [P-0153, 7-(benzo[b]thiophen-2-yl)-4-((1R,5S)-3,8-diazabicyclo[3.2.1]octan-3-yl)-2-(((S)-1-methylpyrrolidin-2-yl)methoxy)quinazoline]: the IC50 in assay [1] fell in the range of 10 to 100 µM; in assay [2], 100 to 1000 µM.

With `CN1CCC[C@H]1COc1nc(N2C[C@H]3CC[C@@H](C2)N3)c2ccc(-c3csc4ccccc34)cc2n1` [P-0154, 7-(benzo[b]thiophen-3-yl)-4-((1R,5S)-3,8-diazabicyclo[3.2.1]octan-3-yl)-2-(((S)-1-methylpyrrolidin-2-yl)methoxy)quinazoline], the IC50 in assay [1] and in assay [2] was 10 to 100 µM in each case.

For the compound `Cc1cc2cn[nH]c2cc1-c1ccc2c(N3C[C@H]4CC[C@@H](C3)N4)nc(OCC3CCCN3C)nc2c1` (stereo partly drawn) [P-0155, 4-((1R,5S)-3,8-diazabicyclo[3.2.1]octan-3-yl)-7-(5-methyl-1H-indazol-6-yl)-2-((1-methylpyrrolidin-2-yl)methoxy)quinazoline], the IC50 lay within 100 to 1000 µM in assay [1] and 10 to 100 µM in assay [2].

Take `CC(=O)Nc1cccc(-c2ccc3c(N4C[C@H]5CC[C@@H](C4)N5)nc(OCC4CCCN4C)nc3c2)c1` (stereo partly drawn) [P-0156, N-(3-(4-((1R,5S)-3,8-diazabicyclo[3.2.1]octan-3-yl)-2-((1-methylpyrrolidin-2-yl)methoxy)quinazolin-7-yl)phenyl)acetamide]: the IC50 in assay [1] and in assay [2] was 100 to 1000 µM throughout.

As for `CN1CCC[C@H]1COc1nc(N2C[C@H]3CC[C@@H](C2)N3)c2ccc(-c3cc(N)c(Cl)cc3Cl)cc2n1` [P-0157, 5-(4-((1R,5S)-3,8-diazabicyclo[3.2.1]octan-3-yl)-2-(((S)-1-methylpyrrolidin-2-yl)methoxy)quinazolin-7-yl)-2,4-dichloroaniline], the IC50 is 10 to 100 µM in assay [1] and 100 to 1000 µM in assay [2].

As for `CN1CCC[C@H]1COc1nc(N2C[C@H]3CC[C@@H](C2)N3)c2ccc(-c3cc(N)cc(F)c3F)cc2n1` [P-0158, 3-(4-((1R,5S)-3,8-diazabicyclo[3.2.1]octan-3-yl)-2-(((S)-1-methylpyrrolidin-2-yl)methoxy)quinazolin-7-yl)-4,5-difluoroaniline], the IC50 in assay [1] and in assay [2] was 10 to 100 µM in each case.

Turning to `CN1CCC[C@H]1COc1nc(N2C[C@H]3CC[C@@H](C2)N3)c2ccc(-c3ccc4c(c3)NC(=O)CO4)cc2n1` [P-0159, 6-(4-((1R,5S)-3,8-diazabicyclo[3.2.1]octan-3-yl)-2-(((S)-1-methylpyrrolidin-2-yl)methoxy)quinazolin-7-yl)-2H-benzo[b][1,4]oxazin-3(4H)-one], the IC50 in assay [1] and in assay [2] was 100 to 1000 µM each time.

On to `CC(=O)Nc1cncc(-c2ccc3c(N4C[C@H]5CC[C@@H](C4)N5)nc(OC[C@@H]4CCCN4C)nc3c2)c1` [P-0160, N-(5-(4-((1R,5S)-3,8-diazabicyclo[3.2.1]octan-3-yl)-2-(((S)-1-methylpyrrolidin-2-yl)methoxy)quinazolin-7-yl)pyridin-3-yl)acetamide], for which the IC50 in assay [1] and in assay [2] was 100 to 1000 µM each time.

Take `Cc1ccc2[nH]ncc2c1-c1ccc2c(N3C[C@H]4CC[C@@H](C3)N4)nc(OC[C@@H]3CCCN3C)nc2c1` [P-0161, 4-((1R,5S)-3,8-diazabicyclo[3.2.1]octan-3-yl)-7-(5-methyl-1H-indazol-4-yl)-2-(((S)-1-methylpyrrolidin-2-yl)methoxy)quinazoline]: the values for the IC50 in assay [1] and in assay [2] were 0.0001 to 10 µM and 100 to 1000 µM, respectively.

As for `CN1CCC[C@H]1COc1nc(N2C[C@H]3CC[C@@H](C2)N3)c2ccc(-c3ccc4cn[nH]c4c3)cc2n1` [P-0162, 4-((1R,5S)-3,8-diazabicyclo[3.2.1]octan-3-yl)-7-(1H-indazol-6-yl)-2-(((S)-1-methylpyrrolidin-2-yl)methoxy)quinazoline], the IC50 in assay [1] and in assay [2] was 100 to 1000 µM throughout.

`Cc1nc2cc(-c3ccc4c(N5C[C@H]6CC[C@@H](C5)N6)nc(OC[C@@H]5CCCN5C)nc4c3)ccc2[nH]1` [P-0163, 4-((1R,5S)-3,8-diazabicyclo[3.2.1]octan-3-yl)-7-(2-methyl-1H-benzo[d]imidazol-5-yl)-2-(((S)-1-methylpyrrolidin-2-yl)methoxy)quinazoline]: the IC50 in assay [1] and in assay [2] was 100 to 1000 µM in each case.

Take `CN1CCC[C@H]1COc1nc(N2C[C@H]3CC[C@@H](C2)N3)c2ccc(-c3c(F)ccc(O)c3F)cc2n1` [P-0164, 3-(4-((1R,5S)-3,8-diazabicyclo[3.2.1]octan-3-yl)-2-(((S)-1-methylpyrrolidin-2-yl)methoxy)quinazolin-7-yl)-2,4-difluorophenol]: the IC50 in assay [1] was 10 to 100 µM; in assay [2] it was 100 to 1000 µM.

Turning to `CN1CCC[C@H]1COc1nc(N2C[C@H]3CC[C@@H](C2)N3)c2ccc(-c3c(O)cccc3F)cc2n1` [P-0165, 2-(4-((1R,5S)-3,8-diazabicyclo[3.2.1]octan-3-yl)-2-(((S)-1-methylpyrrolidin-2-yl)methoxy)quinazolin-7-yl)-3-fluorophenol], the IC50 in assay [1] and in assay [2] was 10 to 100 µM each time.

Take `CN1CCC[C@H]1COc1nc(N2C[C@H]3CC[C@@H](C2)N3)c2ccc(-c3cc(Cl)ccc3O)cc2n1` [P-0166, 2-(4-((1R,5S)-3,8-diazabicyclo[3.2.1]octan-3-yl)-2-(((S)-1-methylpyrrolidin-2-yl)methoxy)quinazolin-7-yl)-4-chlorophenol]: the 50% inhibitory concentration (IC50) in assay [1] and in assay [2] was 100 to 1000 µM in each case.

`CC(=O)Nc1ccc(F)c(-c2ccc3c(N4C[C@H]5CC[C@@H](C4)N5)nc(OC[C@@H]4CCCN4C)nc3c2)c1` [P-0167, N-(3-(4-((1R,5S)-3,8-diazabicyclo[3.2.1]octan-3-yl)-2-(((S)-1-methylpyrrolidin-2-yl)methoxy)quinazolin-7-yl)-4-fluorophenyl)acetamide]: the concentration for half-maximal inhibition (IC50) in assay [1] and in assay [2] was 100 to 1000 µM throughout.

Consider `CN1CCC[C@H]1COc1nc(N2C[C@H]3CC[C@@H](C2)N3)c2ccc(-c3ccnc(N)c3)cc2n1` [P-0168, 4-(4-((1R,5S)-3,8-diazabicyclo[3.2.1]octan-3-yl)-2-(((S)-1-methylpyrrolidin-2-yl)methoxy)quinazolin-7-yl)pyridin-2-amine], for which the values for the concentration for half-maximal inhibition (IC50) in assay [1] and in assay [2] were 100 to 1000 µM and 10 to 100 µM, respectively.

On to `CN1CCC[C@H]1COc1nc(N2C[C@H]3CC[C@@H](C2)N3)c2ccc(-c3ccccc3O)cc2n1` [P-0169, 2-(4-((1R,5S)-3,8-diazabicyclo[3.2.1]octan-3-yl)-2-(((S)-1-methylpyrrolidin-2-yl)methoxy)quinazolin-7-yl)phenol], for which the IC50 in assay [1] and in assay [2] was 100 to 1000 µM in each case.

`CN1CCC[C@H]1COc1nc(N2CC3CCC(C2)N3)c2ccc(-c3cccc(NS(C)(=O)=O)c3)cc2n1` [P-0170, N-(3-(4-((1R,5S)-3,8-diazabicyclo[3.2.1]octan-3-yl)-2-(((S)-1-methylpyrrolidin-2-yl)methoxy)quinazolin-7-yl)phenyl)meanesulfonamide]: the IC50 in assay [1] and in assay [2] was 100 to 1000 µM in each case.

Turning to `CN1CCC[C@H]1COc1nc(N2C[C@H]3CC[C@@H](C2)N3)c2ccc(-c3cccc4[nH]ncc34)cc2n1` [P-0171, 4-((1R,5S)-3,8-diazabicyclo[3.2.1]octan-3-yl)-7-(1H-indazol-4-yl)-2-(((S)-1-methylpyrrolidin-2-yl)methoxy)quinazoline], the IC50 in assay [1] and in assay [2] was 100 to 1000 µM each time.

Turning to `Cc1n[nH]c2cccc(-c3ccc4c(N5C[C@H]6CC[C@@H](C5)N6)nc(OC[C@@H]5CCCN5C)nc4c3)c12` [P-0172, 4-((1R,5S)-3,8-diazabicyclo[3.2.1]octan-3-yl)-7-(3-methyl-1H-indazol-4-yl)-2-(((S)-1-methylpyrrolidin-2-yl)methoxy)quinazoline], the IC50 in assay [1] was 10 to 100 µM; in assay [2], 100 to 1000 µM.

In the case of `CN1CCC[C@H]1COc1nc(N2C[C@H]3CC[C@@H](C2)N3)c2ccc(-c3ccc4c(c3)NCCO4)cc2n1` [P-0173, 6-(4-((1R,5S)-3,8-diazabicyclo[3.2.1]octan-3-yl)-2-(((S)-1-methylpyrrolidin-2-yl)methoxy)quinazolin-7-yl)-3,4-dihydro-2H-benzo[b][1,4]oxazine], the IC50 in assay [1] and in assay [2] was 10 to 100 µM in each case.

In the case of `CN1CCC[C@H]1COc1nc(N2C[C@H]3CC[C@@H](C2)N3)c2ccc(-c3ccc4c(c3)NC(=O)C4)cc2n1` [P-0174, 6-(4-((1R,5S)-3,8-diazabicyclo[3.2.1]octan-3-yl)-2-(((S)-1-methylpyrrolidin-2-yl)methoxy)quinazolin-7-yl)indolin-2-one], the IC50 in assay [1] was in the range of 100 to 1000 µM; in assay [2], 10 to 100 µM.

`CN1CCC[C@H]1COc1nc(N2C[C@H]3CC[C@@H](C2)N3)c2ccc(-c3c[nH]c4ncccc34)cc2n1` [P-0175, 4-((1R,5S)-3,8-diazabicyclo[3.2.1]octan-3-yl)-2-(((S)-1-methylpyrrolidin-2-yl)methoxy)-7-(1H-pyrrolo[2,3-b]pyridin-3-yl)quinazoline]: the IC50 is 100 to 1000 µM in assay [1] and 10 to 100 µM in assay [2].
